Here are results for one molecule from patent US12290587B2, “Anti-aging cosmetic compositions” (GIVAUDAN SA, priority 2019, dated 2025).

The subject of this assay is Normal Human Dermal Fibroblasts. The assay is described as follows: Mitochondrial mass (MitoTracker Green FM) in Normal Human Dermal Fibroblasts. The class given is cell-based. The following applies: 20 mM, insulin 100 nM. As to the method: Normal Human Dermal Fibroblasts were isolated from skin biopsy coming from a breast reduction surgery on a person. 10′000 cells per well were seeded in a black 96-wells plate with DMEM (Dulbecco's Modified Eagle's Medium, Gibco) supplemented with 10% FCS (Fetal Calf Serum, Biowest) and 1% antibiotics (Sigma Aldrich) and were cultured for 72 hours in an incubator at 37° C. in a humid atmosphere containing 5% CO2. Cells were then rinsed two times with PBS (Phosphate Buffer Saline) before being incubated with FCS-free DMEM medium overnight in the same incubator. On the next day, the cells were treated with (i) mannose at 20 mM, (ii) mannose-6-phosphate at 20 mM or (iii) the above-mentioned Mannose-6-Phosphate complex at 20 mM (n=3) in the presence of insulin (100 nM). After 1 hour and 48 hours of treatment, MitoTracker™ Green FM (ThermoFisher) was added directly in each well for a final concentration of 200 nM and the plate was incubated in the dark in the incubator for 15 minutes. Cells were then rinsed off two times with PBS and each well was filled with 200 μl PBS. Fluorescence intensity of MitoTracker™ Green FM was measured with a microplate reader (Excitation wavelength: 488 nm/Emission wavelength: 525 nm). In this study, the mitochondrial mass in cells was determined using the fluorescence intensity emitted by MitoTracker™ Green FM.

Take `O=C[C@@H](O)[C@@H](O)[C@H](O)[C@H](O)COP(=O)(O)O` [mannose-6-phosphate]: the “decrease of MitoTracker Green FM specific signal (mitochondrial mass)” value (1 hour treatment) was −53% and the “decrease of MitoTracker Green FM specific signal (mitochondrial mass)” value (48 hours of treatment) is reported as −60%.
